Measurements as given in ChEMBL document CHEMBL1201862, “PubChem BioAssay data set” (2004).
Active and inactive are the calls of the source.

How the values were obtained:
CHO = assay: cytotoxicity in TLR9-MyD88 CHO cells, dose response, cytotoxicity control for TLR9-MyD88 binding inhibitor project, cell-based, luminescence (AID 588339); format: functional, hamster; conditions: Cricetulus griseus;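 note: CHO cells stably coexpressing TLR9 and MyD88 fusions from primary screen; compound exposure lasted 48 hours before viability readout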
[1] = molecular target: Glucose-6-phosphate 1-dehydrogenase (Homo sapiens, UniProt P11413); assay: human G6PD enzyme inhibitors, dose response, selectivity assay for P. falciparum G6PD inhibitor project, biochemical, fluorescence (AID 504792); format: functional
[2] = molecular target: Heat shock protein HSP 90-alpha (Homo sapiens, UniProt P07900); format: functional, organism-based
Beta Lactamase = Beta Lactamase (Pseudomonas aeruginosa, UniProt Q932Y6); assay: beta-lactamase reporter inhibitor potency, dose response, artefact control for TLR9-MyD88 binding inhibitor project, BLA reporter cells, FRET fluorescence (AID 588341); format: cell-based;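 note: cell based assay in CHO-K1 cells stably expressing beta-lactamase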
[3] = molecular target: T1, Sentrin-specific protease 8 (Homo sapiens, UniProt Q96LD8); format: functional;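 note: luminescence read-out of SENP8 inhibition, dose-response confirmation following an ultra-high-throughput screen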
T1 sequence (Q96LD8 whole entry): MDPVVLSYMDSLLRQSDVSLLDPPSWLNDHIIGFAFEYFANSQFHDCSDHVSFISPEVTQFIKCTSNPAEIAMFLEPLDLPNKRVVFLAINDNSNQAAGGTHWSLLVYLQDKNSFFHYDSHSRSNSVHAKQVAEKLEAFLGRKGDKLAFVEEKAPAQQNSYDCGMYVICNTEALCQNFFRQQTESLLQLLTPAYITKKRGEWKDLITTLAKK

[4] = molecular target: T2, Sentrin-specific protease 6 (Homo sapiens, UniProt Q9GZR1); format: functional;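 note: Luminescence-based dose-response confirmatory assay of SENP6 inhibition, following up an ultra-high-throughput screen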
T2 sequence (Q9GZR1 whole entry): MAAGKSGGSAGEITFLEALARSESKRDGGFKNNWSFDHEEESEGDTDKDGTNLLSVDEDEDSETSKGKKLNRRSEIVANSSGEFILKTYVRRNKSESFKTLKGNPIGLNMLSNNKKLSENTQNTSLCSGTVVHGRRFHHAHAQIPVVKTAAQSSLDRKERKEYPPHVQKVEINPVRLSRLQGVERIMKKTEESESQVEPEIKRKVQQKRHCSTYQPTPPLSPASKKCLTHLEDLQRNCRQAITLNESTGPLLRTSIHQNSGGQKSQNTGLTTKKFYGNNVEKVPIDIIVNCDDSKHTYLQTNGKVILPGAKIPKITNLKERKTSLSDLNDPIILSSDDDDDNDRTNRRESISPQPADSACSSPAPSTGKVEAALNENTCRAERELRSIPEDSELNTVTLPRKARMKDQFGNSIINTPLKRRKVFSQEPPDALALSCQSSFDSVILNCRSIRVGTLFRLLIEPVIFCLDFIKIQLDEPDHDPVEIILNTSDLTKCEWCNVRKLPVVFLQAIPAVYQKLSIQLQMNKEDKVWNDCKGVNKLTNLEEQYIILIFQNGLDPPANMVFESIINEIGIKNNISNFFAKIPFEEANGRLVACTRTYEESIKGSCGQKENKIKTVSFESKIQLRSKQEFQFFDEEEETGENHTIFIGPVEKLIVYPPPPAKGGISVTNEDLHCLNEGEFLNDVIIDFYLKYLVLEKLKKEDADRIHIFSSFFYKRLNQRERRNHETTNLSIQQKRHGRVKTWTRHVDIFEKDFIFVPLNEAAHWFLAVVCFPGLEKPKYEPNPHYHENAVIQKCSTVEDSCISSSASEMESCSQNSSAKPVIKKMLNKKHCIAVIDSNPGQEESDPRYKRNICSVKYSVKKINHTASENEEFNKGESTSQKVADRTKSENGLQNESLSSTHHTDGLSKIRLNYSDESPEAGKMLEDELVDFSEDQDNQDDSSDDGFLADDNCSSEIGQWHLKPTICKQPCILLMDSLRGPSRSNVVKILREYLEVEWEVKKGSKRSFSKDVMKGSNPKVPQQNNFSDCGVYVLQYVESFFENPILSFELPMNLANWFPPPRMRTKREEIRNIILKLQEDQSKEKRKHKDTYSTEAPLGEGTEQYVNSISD

Caspase-3 = molecular target: T3, Caspase-3 (Homo sapiens, UniProt P42574); format: functional;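 note: Dose-response selectivity test against caspase-3 for candidate inhibitors of sentrin-specific proteases (SENPs)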
T3 sequence (P42574 whole entry): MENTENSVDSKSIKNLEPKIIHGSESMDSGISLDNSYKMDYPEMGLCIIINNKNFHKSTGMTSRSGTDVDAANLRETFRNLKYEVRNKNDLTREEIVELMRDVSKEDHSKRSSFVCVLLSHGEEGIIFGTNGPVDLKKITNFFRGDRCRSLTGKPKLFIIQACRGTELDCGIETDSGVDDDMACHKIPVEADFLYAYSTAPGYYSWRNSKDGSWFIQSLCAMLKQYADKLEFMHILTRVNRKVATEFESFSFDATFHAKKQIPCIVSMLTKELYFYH

[5] = molecular target: T4, Sentrin-specific protease 7 (Homo sapiens, UniProt Q9BQF6); format: functional;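 note: Luminescence-based dose-response confirmation of ultra-high-throughput screening hits, measuring inhibition of SENP7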
T4 sequence (Q9BQF6 whole entry): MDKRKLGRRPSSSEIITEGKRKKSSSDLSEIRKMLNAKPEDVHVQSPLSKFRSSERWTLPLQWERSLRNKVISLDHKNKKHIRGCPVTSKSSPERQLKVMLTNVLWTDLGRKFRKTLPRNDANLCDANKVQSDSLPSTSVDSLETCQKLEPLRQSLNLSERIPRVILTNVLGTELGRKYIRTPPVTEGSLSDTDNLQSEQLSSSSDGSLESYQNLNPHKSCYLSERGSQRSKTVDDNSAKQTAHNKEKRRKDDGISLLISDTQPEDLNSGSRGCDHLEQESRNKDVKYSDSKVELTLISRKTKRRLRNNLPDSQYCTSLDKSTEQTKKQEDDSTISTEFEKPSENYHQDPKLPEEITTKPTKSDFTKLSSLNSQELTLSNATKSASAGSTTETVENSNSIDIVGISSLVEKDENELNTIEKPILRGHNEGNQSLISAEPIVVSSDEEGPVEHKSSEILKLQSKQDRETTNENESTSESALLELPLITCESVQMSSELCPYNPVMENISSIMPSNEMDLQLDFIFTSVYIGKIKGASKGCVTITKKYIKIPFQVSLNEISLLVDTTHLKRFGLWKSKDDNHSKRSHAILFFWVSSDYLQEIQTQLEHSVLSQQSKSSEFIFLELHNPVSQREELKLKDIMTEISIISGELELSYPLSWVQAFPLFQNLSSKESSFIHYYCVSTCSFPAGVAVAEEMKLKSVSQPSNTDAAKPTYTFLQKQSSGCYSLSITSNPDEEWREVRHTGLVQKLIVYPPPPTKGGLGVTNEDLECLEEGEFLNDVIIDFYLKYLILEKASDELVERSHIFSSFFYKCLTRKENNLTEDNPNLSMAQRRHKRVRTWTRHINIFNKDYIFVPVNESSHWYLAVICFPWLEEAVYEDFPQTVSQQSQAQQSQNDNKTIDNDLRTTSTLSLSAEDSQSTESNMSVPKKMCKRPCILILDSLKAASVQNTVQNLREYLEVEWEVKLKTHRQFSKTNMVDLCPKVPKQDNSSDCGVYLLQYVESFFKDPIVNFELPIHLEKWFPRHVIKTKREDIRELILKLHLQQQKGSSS

P388 = assay: cells; format: functional; conditions: Mus musculus
P388/ADR = assay: cells; format: functional; conditions: Mus musculus
SN12K1 = assay: cells; format: functional; conditions: Homo sapiens
Protein skinhead-1 = molecular target: T5, Protein skinhead-1 (Caenorhabditis elegans, UniProt P34707); format: functional
T5 sequence (P34707 whole entry): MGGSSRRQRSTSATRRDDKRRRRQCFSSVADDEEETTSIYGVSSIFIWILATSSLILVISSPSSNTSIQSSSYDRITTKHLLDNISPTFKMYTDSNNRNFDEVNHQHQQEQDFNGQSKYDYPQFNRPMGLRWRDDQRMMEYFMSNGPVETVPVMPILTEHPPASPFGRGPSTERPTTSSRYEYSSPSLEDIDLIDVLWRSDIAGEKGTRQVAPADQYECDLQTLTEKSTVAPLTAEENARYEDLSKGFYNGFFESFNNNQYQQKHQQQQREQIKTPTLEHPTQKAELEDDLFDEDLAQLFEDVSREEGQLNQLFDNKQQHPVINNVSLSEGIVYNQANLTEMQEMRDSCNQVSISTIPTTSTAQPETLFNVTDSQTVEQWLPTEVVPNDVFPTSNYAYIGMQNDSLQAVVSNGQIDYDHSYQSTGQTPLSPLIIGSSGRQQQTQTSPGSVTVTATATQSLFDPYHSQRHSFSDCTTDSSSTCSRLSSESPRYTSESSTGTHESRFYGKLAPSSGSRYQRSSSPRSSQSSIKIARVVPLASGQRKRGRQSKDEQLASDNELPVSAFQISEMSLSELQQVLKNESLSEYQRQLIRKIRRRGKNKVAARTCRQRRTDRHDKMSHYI

BJ [6] = assay: cytotoxicity toward Ras-transformed BJeLR fibroblasts, dose response, cell-based, alamar blue fluorescence, cherrypicked samples (AID 2631); format: functional; conditions: Homo sapiens;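 note: confirmatory dose-response assay in RAS-dependent BJ fibroblasts engineered with TERT, LT and ST, with cytotoxicity read by fluorescence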
[7] = cytotoxicity toward DRD oncogenic fibroblasts, dose response, cell-based, non-viral oncogenic, luminescence (AID 1934); format: functional; conditions: Homo sapiens
INS1 = assay: beta cell apoptosis inhibitors, cytokine rescue, dose response, luminescence, retest (AID 449756); format: functional, cell-based; conditions: Rattus norvegicus;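 note: cell death triggered by IL-1 beta plus TNF-alpha plus IFN-gamma mixture; protective hits raise ATP signal compared with cytokine alone wells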
BJ [8] = assay: cells; format: functional, cell-based; conditions: Homo sapiens
BJ [9] = assay: cytotoxicity toward BJ-TERT fibroblasts, dose response, cell-based, RAS-independent, luminescence (AID 1933); format: functional; conditions: Homo sapiens
[10] = control 3'UTR Renilla luciferase suppression, dose response, counter-screen for Shn3 inhibitor project, cell-based, Clone20-Shn3RL, cherry-picked (AID 624133); format: functional
BJ [11] = assay: cytotoxicity toward BJ-TERT-LT-ST fibroblasts, dose response, cell-based, RAS-independent, luminescence (AID 1935); format: functional; conditions: Homo sapiens;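 note: BJ fibroblasts immortalized with TERT plus LT and ST oncogenes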
[12] = HepG2 cell cytotoxicity, dose response, cytotoxicity control for Shn3 inhibitor project, CellTiter-Glo, cherry-picked (AID 624134); format: functional, cell-based
[13] = Shn3 3'UTR reporter inhibitors, dose response, cell-based, Clone20 osteoblasts, firefly luciferase, cherry-picked (AID 624132); format: functional;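 note: firefly luciferase luminescence from reporter carrying the Shn3 3'UTR in osteoblasts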

Beta Lactamase, sequence (Q932Y6 whole entry): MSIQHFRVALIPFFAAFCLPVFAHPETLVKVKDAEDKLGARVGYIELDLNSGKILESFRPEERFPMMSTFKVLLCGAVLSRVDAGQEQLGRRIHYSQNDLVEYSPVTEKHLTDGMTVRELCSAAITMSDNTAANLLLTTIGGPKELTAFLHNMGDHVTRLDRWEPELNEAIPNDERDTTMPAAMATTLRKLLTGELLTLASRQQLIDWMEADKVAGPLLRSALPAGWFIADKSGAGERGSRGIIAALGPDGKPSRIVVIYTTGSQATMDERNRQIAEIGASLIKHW
Glucose-6-phosphate 1-dehydrogenase, sequence (P11413 whole entry): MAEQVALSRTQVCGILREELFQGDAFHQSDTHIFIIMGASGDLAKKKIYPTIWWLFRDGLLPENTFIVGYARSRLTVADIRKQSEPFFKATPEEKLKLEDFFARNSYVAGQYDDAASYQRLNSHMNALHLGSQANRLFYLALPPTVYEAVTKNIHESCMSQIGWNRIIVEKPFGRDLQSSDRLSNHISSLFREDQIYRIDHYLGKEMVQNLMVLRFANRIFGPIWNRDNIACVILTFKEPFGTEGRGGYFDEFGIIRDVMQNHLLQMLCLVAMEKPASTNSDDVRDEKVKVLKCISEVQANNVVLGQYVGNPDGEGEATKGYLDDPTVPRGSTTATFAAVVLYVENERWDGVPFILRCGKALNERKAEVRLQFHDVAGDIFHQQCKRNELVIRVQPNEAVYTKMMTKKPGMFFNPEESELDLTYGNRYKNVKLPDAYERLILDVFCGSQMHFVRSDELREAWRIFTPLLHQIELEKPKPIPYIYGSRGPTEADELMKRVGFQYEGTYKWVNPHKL

| IC50 [4] | IC50 (Caspase-3) | IC50 [5] | Structure (SMILES) | IC50 [3] | GI50 (P388) | GI50 (P388/ADR) | GI50 (SN12K1) | further results |
| --- | --- | --- | --- | --- | --- | --- | --- | --- |
| – | – | – | CC(=O)Nc1ccc2c(c1)Cc1cc(N3C(=O)C=CC3=O)ccc1-2 | – | – | – | – | IC50 (CHO): 1.86 µM (active); IC50 [1]: > 80 µM (inactive); AC50 [2]: 680 nM (active); IC50 (Beta Lactamase): 7.23 µM (active) |
| > 100 µM (inactive) | 28 µM (active) | 5.1 µM (active) | Cc1ccc(Nc2ncnc3c2oc2ccccc23)cc1 | > 100 µM (inactive) | – | – | – | – |
| – | – | – | N/C(=N\O)N/N=C/c1ncccc1O | – | 1.67 µM (inactive) | 1.52 µM (inactive) | 3.52 µM (inactive) | – |
| 69.7 µM (active) | 62.9 µM (active) | 12.9 µM (active) | CCCOC(=O)c1ccc(NC(=O)/C=C/c2cccs2)cc1 | 70.2 µM (active) | – | – | – | IC50 (Protein skinhead-1): > 100 µM (inactive) |
| – | – | – | O=C(NN1C(=O)CSC1c1ccc(C(F)(F)F)cc1)c1ccncc1 (stereo not drawn) | – | > 100 µM (inactive) | > 67.6 µM (inactive) | > 100 µM (inactive) | – |
| – | – | – | Cc1cccc(NC(=O)/C=C/c2ccc([N+](=O)[O-])s2)c1 | – | – | – | – | EC50 (BJ [6]): 531 nM (active); EC50 [7]: 4.68 µM (active); AC50 (INS1): 7.91 µM (active); EC50 (BJ [8]): 15.7 µM (active); EC50 (BJ [9]): 4.95 µM (inconclusive); AC50 [10]: 13.5 µM (active); EC50 (BJ [11]): 4.67 µM (inconclusive); AC50 [12]: 9.74 µM (active); AC50 [13]: 3.29 µM (active) |
